Measured values: patent US10457644B2, “Pyrazol compounds as EAAT3 inhibitors” (Hoffmann-La Roche Inc., priority 2016, dated 2019)

What was measured:
[1] = target: T1, human EAAT3 (Homo sapiens, UniProt P43005); test: FLIPR Membrane Potential (FMP) assay; type: cell-based; details: HEK-293 cells stably expressing human EAAT3; L-glutamate as agonist at 80% of maximum response; antagonist applied 15 min before; Kb by Cheng-Prusoff from IC50
T1 construct: expressed in transfected cells
T1 sequence (P43005 1-524): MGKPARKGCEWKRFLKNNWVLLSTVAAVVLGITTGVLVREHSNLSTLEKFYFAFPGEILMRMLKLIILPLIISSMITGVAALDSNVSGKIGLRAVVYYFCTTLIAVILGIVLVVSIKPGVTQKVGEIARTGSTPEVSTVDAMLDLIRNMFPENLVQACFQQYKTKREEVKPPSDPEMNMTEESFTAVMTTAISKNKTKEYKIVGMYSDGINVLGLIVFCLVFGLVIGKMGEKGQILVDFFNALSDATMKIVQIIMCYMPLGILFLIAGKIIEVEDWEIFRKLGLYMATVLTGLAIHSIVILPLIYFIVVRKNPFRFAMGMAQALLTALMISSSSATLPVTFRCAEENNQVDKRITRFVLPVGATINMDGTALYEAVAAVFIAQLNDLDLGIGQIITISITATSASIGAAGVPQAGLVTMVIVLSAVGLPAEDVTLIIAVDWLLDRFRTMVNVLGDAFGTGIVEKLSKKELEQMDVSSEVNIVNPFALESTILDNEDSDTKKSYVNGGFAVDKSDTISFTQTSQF
Protocol: The FLIPR Membrane Potential (FMP) Assay
HEK-293 cells stably expressing human EAAT3 were seeded at 55 000 cells/well in growth medium (DMEM glutamate free (Invitrogen 11960-044), 1% Pen Strep (10 ml/l GIBCO BRL N^o 15140-023), 10% FCS non dialysed heat inactivated, 5 mg/l puromycin) in poly-D-lysine treated 96-well black microtiter plates with clear-bottom. After 24 h, the growth medium was removed and 100 μl/well of Krebs buffer (140 mM NaCl, 4.7 mM KCl, 2.5 mM CaCl2, 1.2 mM MgCl2, 11 mM HEPES, 10 mM D-glucose, pH=7.4) added. The cells were then loaded by adding 100 μl/well FMP assay dye (FLIPR Membrane Potential assay reagent, Molecular Devices). The 96-well plates were then incubated at 37° C. for 1 h. The depolarization of the cells will cause more dye to enter in the cells, where it will bind to intracellular proteins and lipids and cause an increase in the fluorescence signal. Antagonist potency at human EAAT3 was determined by using L-glutamate as agonist at a concentration which gives 80% of the maximum response. The antagonists were applied 15 min before the application of the agonist L-glutamate. The assays were performed at room temperature and measurements done by using a Fluorometric Imaging Plate Reader (FLIPR, Molecular Devices) and filter #2. Responses were measured as peak increase in fluorescence minus basal (i.e. fluorescence without addition of L-glutamate). Kb was determined using the Cheng-Prusoff equation Kb=IC50/[1+(A/EC50)], where IC50 is the concentration of the antagonist producing 50% inhibition, A is the concentration of the agonist against which the IC50 is being determined ([…]) and EC50 is the concentration of the agonist producing […].

Row | SMILES | Kb [1] | melting point
1 | CC(C)(C)NC(=O)c1cc(-c2ccc(Cl)cc2)cc(-c2ccnn2C(C)(C)C)c1 [Example 4, N-tert-Butyl-3-(2-tert-butyl-pyrazol-3-yl)-5-(4-chlorophenyl)-benzamide] | 320 nM | 209 °C
2 | CCC(C)(C)NC(=O)c1cc(-c2ccc(Cl)cc2)cc(-c2ccnn2C(C)(C)C)c1 [Example 18, 3-(2-tert-Butyl-pyrazol-3-yl)-5-(4-chlorophenyl)-N-(2-methyl-butan-2-yl)-benzamide] | 3420 nM | 183.5 °C
3 | Cc1ccc(-c2cc(C(=O)NC(C)(C)C)cc(-c3ccnn3C(C)C)c2)cc1 [Example 9, N-tert-Butyl-3-(4-methylphenyl)-5-(2-propan-2-yl-pyrazol-3-yl)-benzamide] | 260 nM | 163 °C
4 | CC(C)n1nccc1-c1cc(C(=O)NC(C)(C)CO)cc(-c2ccc(Cl)cc2)c1 [Example 39, 3-(4-Chlorophenyl)-N-(1-hydroxy-2-methyl-propan-2-yl)-5-(2-propan-2-yl-pyrazol-3-yl)-benzamide] | 270 nM | 80.5 °C
5 | CC(C)(C)NC(=O)c1cc(-c2ccc(F)cc2)cc(-c2ccnn2CC2CC2)c1 [Example 46, N-tert-Butyl-3-[2-(cyclopropylmethyl)-pyrazol-3-yl]-5-(4-fluorophenyl)-benzamide] | 280 nM | 188 °C
6 | CC(C)(C)NC(=O)c1cc(-c2ccc(C(F)(F)F)cc2)cc(-c2ccnn2C2CC2)c1 [Example 43, N-tert-Butyl-3-(2-cyclopropyl-pyrazol-3-yl)-5-[4-(trifluoromethyl)-phenyl]-benzamide] | 320 nM | 72 °C
7 | CC(C)n1nccc1-c1cc(C(=O)NC(C)(C)C)cc(-c2ccc(F)c(Cl)c2)c1 [Example 12, N-tert-Butyl-3-(3-chloro-4-fluorophenyl)-5-(2-propan-2-yl-pyrazol-3-yl)-benzamide] | 610 nM | 81 °C
8 | Cc1ccc(-c2cc(C(=O)NC(C)(C)C)cc(-c3ccnn3C(C)(C)C)c2)cc1F [Example 29, N-tert-Butyl-3-(2-tert-butyl-pyrazol-3-yl)-5-(3-fluoro-4-methyl-phenyl)-benzamide] | 390 nM | 202 °C
9 | Cc1cc(-c2cc(C(=O)NC(C)(C)C)cc(-c3ccnn3C(C)C)c2)ccc1F [Example 15, N-tert-Butyl-3-(4-fluoro-3-methyl-phenyl)-5-(2-propan-2-yl-pyrazol-3-yl)-benzamide] | 1280 nM | 155 °C
10 | CC(C)n1nccc1-c1cc(C(=O)NC(C)(C)C2CC2)cc(-c2ccc(Cl)cc2)c1 [Example 26, 3-(4-Chlorophenyl)-N-(2-cyclopropyl-propan-2-yl)-5-(2-propan-2-yl-pyrazol-3-yl)-benzamide] | 1520 nM | 169 °C
11 | CC(C)(CO)NC(=O)c1cc(-c2ccc(Cl)cc2)cc(-c2ccnn2C(C)(C)C)c1 [Example 41, 3-(2-tert-Butyl-pyrazol-3-yl)-5-(4-chlorophenyl)-N-(1-hydroxy-2-methylpropan-2-yl)-benzamide] | 260 nM | 83 °C
12 | CC(C)(C)NC(=O)c1cc(-c2ccc(C#N)cc2)cc(-c2ccnn2C(C)(C)C)c1 [Example 38, N-tert-Butyl-3-(2-tert-butyl-pyrazol-3-yl)-5-(4-cyano-phenyl)-benzamide] | 240 nM | 201.5 °C
13 | CC(C)(C)NC(=O)c1cc(-c2ccc(F)c(F)c2)cc(-c2ccnn2C(C)(C)C)c1 [Example 36, N-tert-Butyl-3-(2-tert-butyl-pyrazol-3-yl)-5-(3,4-difluorophenyl)-benzamide] | 440 nM | 197.5 °C
14 | CC(C)(C#N)NC(=O)c1cc(-c2ccc(Cl)cc2)cc(-c2ccnn2C(C)(C)C)c1 [Example 22, 3-(2-tert-Butylpyrazol-3-yl)-5-(4-chlorophenyl)-N-(2-cyanopropan-2-yl)-benzamide] | 370 nM | 119 °C
15 | CC(C)n1nccc1-c1cc(C(=O)NC(C)(C)C)cc(-c2ccc(F)cc2)c1 [Example 6, N-tert-Butyl-3-(4-fluorophenyl)-5-(2-propan-2-yl-pyrazol-3-yl)-benzamide] | 95 nM | 161 °C
16 | CCn1nccc1-c1cc(C(=O)NC(C)(C)C)cc(-c2ccc(C(F)(F)F)cc2)c1 [Example 48, N-tert-Butyl-3-(2-ethyl-pyrazol-3-yl)-5-[4-(trifluoromethyl)-phenyl]-benzamide] | 290 nM | 70 °C
17 | CC(C)(C)NC(=O)c1cc(-c2ccc(F)c(Cl)c2)cc(-c2ccnn2C(C)(C)C)c1 [Example 32, N-tert-Butyl-3-(2-tert-butyl-pyrazol-3-yl)-5-(3-chloro-4-fluoro-phenyl)-benzamide] | 410 nM | 175 °C
18 | CC(C)(C)NC(=O)c1cc(-c2ccc(Cl)cc2)cc(-c2ccnn2CC2CC2)c1 [Example 25, N-tert-Butyl-3-(4-chlorophenyl)-5-[2-(cyclopropyl-methyl)-pyrazol-3-yl]-benzamide] | 250 nM | 159 °C
19 | CCn1nccc1-c1cc(C(=O)NC(C)(C)C)cc(-c2ccc(F)cc2)c1 [Example 47, N-tert-Butyl-3-(2-ethyl-pyrazol-3-yl)-5-(4-fluorophenyl)-benzamide] | 110 nM | 162 °C
20 | CC(C)(C)NC(=O)c1cc(-c2ccc(F)cc2)cc(-c2ccnn2C(C)(C)C)c1 [Example 2, N-tert-Butyl-3-(2-tert-butyl-pyrazol-3-yl)-5-(4-fluorophenyl)-benzamide] | 190 nM | 210 °C
21 | CC(C)n1nccc1-c1cc(C(=O)NC(C)(C)C)cc(-c2ccc(C#N)cc2)c1 [Example 17, N-tert-Butyl-3-(4-cyano-phenyl)-5-(2-propan-2-yl-pyrazol-3-yl)-benzamide] | 330 nM | 94 °C
22 | CC(C)(C)NC(=O)c1cc(-c2ccc(C3CC3)cc2)cc(-c2ccnn2C(C)(C)C)c1 [Example 37, N-tert-Butyl-3-(2-tert-butyl-pyrazol-3-yl)-5-(4-cyclopropyl-phenyl)-benzamide] | 1130 nM | 198.5 °C
23 | COc1ccc(-c2cc(C(=O)NC(C)(C)C)cc(-c3ccnn3C(C)C)c2)cc1 [Example 11, N-tert-Butyl-3-(4-methoxyphenyl)-5-(2-propan-2-yl-pyrazol-3-yl)-benzamide] | 290 nM | 79 °C
24 | Cc1ccc(-c2cc(C(=O)NC(C)(C)C)cc(-c3ccnn3C(C)(C)C)c2)cc1 [Example 30, N-tert-Butyl-3-(2-tert-butyl-pyrazol-3-yl)-5-(4-methyl-phenyl)-benzamide] | 370 nM | 193 °C
25 | CC(C)n1nccc1-c1cc(C(=O)NC(C)(C)C)cc(-c2ccc(C(F)(F)F)cc2)c1 [Example 7, N-tert-Butyl-3-(2-propan-2-yl-pyrazol-3-yl)-5-[4-(trifluoromethyl)-phenyl]-benzamide] | 180 nM | 81 °C
26 | CCn1nccc1-c1cc(C(=O)NC(C)(C)C)cc(-c2ccc(Cl)cc2)c1 [Example 24, N-tert-Butyl-3-(4-chlorophenyl)-5-(2-ethyl-pyrazol-3-yl)-benzamide] | 170 nM | 68 °C
27 | CC(C)(C)NC(=O)c1cc(-c2ccccc2)cc(-c2ccnn2C(C)(C)C)c1 [Example 28, N-tert-Butyl-3-(2-tert-butyl-pyrazol-3-yl)-5-phenyl-benzamide] | 470 nM | 199.5 °C
28 | Cc1cc(-c2cc(C(=O)NC(C)(C)C)cc(-c3ccnn3C(C)(C)C)c2)ccc1F [Example 27, N-tert-Butyl-3-(2-tert-butyl-pyrazol-3-yl)-5-(4-fluoro-3-methyl-phenyl)-benzamide] | 930 nM | 186 °C
29 | CC(C)n1nccc1-c1cc(C(=O)NC(C)(C)C#N)cc(-c2ccc(Cl)cc2)c1 [Example 21, 3-(4-Chlorophenyl)-N-(2-cyano-propan-2-yl)-5-(2-propan-2-yl-pyrazol-3-yl)-benzamide] | 320 nM | 96 °C
